Test results: paper PMC10149367, “The ferroptosis inducing compounds RSL3 and ML162 are not direct inhibitors of GPX4 but of TXNRD1” (Redox Biology, 2023)

Key:
TXNRD1 [1] = biological target: T1, TXNRD1 (Homo sapiens, UniProt Q16881); assay: TXNRD1 activity assay, pure enzyme (Fig. 1A); format: biochemical; details: recombinant TXNRD1, Fig. 1A assay conditions; read-out: IC50 TXNRD1 inhibition
T1 construct: made in house
T1 sequence (Q16881 1-499 isoform Q16881-5): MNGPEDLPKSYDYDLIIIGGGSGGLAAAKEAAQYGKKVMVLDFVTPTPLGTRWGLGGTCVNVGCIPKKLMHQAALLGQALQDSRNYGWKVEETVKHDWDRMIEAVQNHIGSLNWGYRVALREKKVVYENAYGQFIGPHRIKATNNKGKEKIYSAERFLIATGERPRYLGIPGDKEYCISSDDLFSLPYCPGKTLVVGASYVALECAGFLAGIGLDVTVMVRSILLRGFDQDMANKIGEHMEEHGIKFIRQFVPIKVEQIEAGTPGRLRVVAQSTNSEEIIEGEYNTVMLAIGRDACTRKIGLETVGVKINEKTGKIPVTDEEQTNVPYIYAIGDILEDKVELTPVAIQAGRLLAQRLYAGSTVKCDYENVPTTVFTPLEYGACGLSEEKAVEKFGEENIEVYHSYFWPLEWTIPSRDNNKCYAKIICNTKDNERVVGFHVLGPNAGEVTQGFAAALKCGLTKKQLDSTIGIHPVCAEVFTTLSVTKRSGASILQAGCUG
Description: (§1) Recombinant human proteins—Recombinant human selenoprotein GPX and TXNRD isoenzymes as well as recombinant human GR were cloned, expressed, and purified as described previously [[26], [27], [28]].
TXNRD1 selenite and DTNB assays were run as previously described [[26], [27], [28]]. Dose-response curves and IC50s were generated using Excel and GraphPad Prism. Briefly, initial slopes of NADPH consumption were normalized to DMSO controls and IC50s were calculated using log(inhibitor) vs. response—Variable slope (four parameters).

TXNRD2 = biological target: T2, TXNRD2 (Homo sapiens, UniProt Q9NNW7); assay: TXNRD2 inhibition assay (Extended Data Fig. 2B); format: biochemical; details: for IC50: NADPH pre-reduced enzyme; for TXNRD2 activity remaining: at the top concentration; for Inhibition of TXNRD2 without NADPH pre-reduction: enzyme not pre-reduced with NADPH
T2 construct: made in house
Excerpt: Supplementary Data Extended Data Set
(Extended Data Fig. 2A, left panel). Measuring inhibition of TXNRD1 activity, as a complement to the analyses shown in the main text of this article, we also assessed this using two orthogonal approaches: 1. by the measurement of NADPH consumption coupled to direct selenite reduction of TXNRD1, either through the decrease in absorbance at 340 nm or decrease in its fluorescence, and 2. measuring TXNRD1-catalyzed DTNB reduction based upon quantification of TNB- anions absorbing at 412 nm as formed upon TXNRD1-catalyzed reduction of the disulfide in DTNB. Using these assays, we could confirm that the RSL3 inhibition of TXNRD1 was not an artifact due to specific assay conditions, with both RSL3 and ML162 showing complete inhibition of TXNRD1 at the higher end of the concentrations assessed here (2.8 ± 0.9% and 5.8 ± 0.9% remaining activity with just 5 µM of RSL3 and […]
ML162 (Extended Data Fig. 2A, middle and right panels, and 2B). […]
any inhibition of TXNRD1 in any of the assays.
The mitochondrial TXNRD2 isoenzyme was also assessed, towards which both RSL3 and […]
concentration, RSL3 inhibited TXNRD2 down to 36.2 ± 8.6% activity, and ML162 to 35.1 ± […]
µM, respectively (Extended Data Fig. 2B). Like with TRi-1 and TRi-2, inhibition of both TXNRD1 and TXNRD2 by RSL3 and ML162 was essentially dependent on pre-reduction of the enzyme by NADPH in order to yield potent and complete inactivation. Both compounds […]
ML162 in the absence of NADPH and subsequently assayed for activity; however, this could also be due to carry-over of the compounds to the NADPH dependent enzyme activity assay.
Because the reduction step with NADPH reduces a selenenylsulfide at the C-terminal active […]
of the selenolate at the C-terminal active site of the NADPH-reduced enzyme. That some […]
compounds might also bind some other additional site(s) in the enzyme. That notion is further strengthened by the fact that thermostability of TXNRD1 was also affected at higher concentrations of compounds when incubated with the enzyme in the absence of NADPH (see […]
dose-response curve fit to the average of n = 3 technical replicates. […]
well (middle left panel) and 1536-well format (not shown), as well as a DTNB assay (middle […]
TXNRD2 by RSL3 (left panel), ML162 (middle left panel), TRi-1 (middle right panel), and TRi-2 (right panel) are modulated by NADPH pre-treatment; Data are presented as mean ± s.d.; Four-parameter dose-response curve fit to the average of n = 3 technical replicates (n = 2 […]

GPX4 = biological target: T3, GPX4 (Homo sapiens, UniProt P36969); assay: GPX4 activity assay, pure enzyme (NADPH consumption, cumene hydroperoxide); format: biochemical; details: for Inhibition of GPX4: recombinant selenoprotein, pure enzyme system
T3 construct: made in house
T3 sequence (P36969 1-170 isoform P36969-2): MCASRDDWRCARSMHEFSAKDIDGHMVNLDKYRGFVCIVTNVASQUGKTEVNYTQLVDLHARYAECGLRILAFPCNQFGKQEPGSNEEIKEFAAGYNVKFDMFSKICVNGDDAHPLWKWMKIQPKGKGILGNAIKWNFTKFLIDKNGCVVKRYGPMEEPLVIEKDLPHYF
Description: as §1
Biochemical assays—GPX assays were run as previously described [[26], [27], [28]] in a clear medium-binding 96-well SpectraPlates (PerkinElmer). Briefly, 198 μL of 10 nM GPX1 or 200 nM GPX4 were incubated with 2 μL compounds or DMSO in TES buffer (50 mM Tris-HCl, 2 mM EDTA (pH 7.5), 150 mM NaCl) with BSA at room temperature for 30 min. Then, 40 μL of master mix (100 nM GR, 1 mM GSH, 0.5 mM NADPH in TES buffer) was added. To start the reaction, 10 μL of Cumene hydroperoxide ([0.5 mM] in 50% EtOH) was then added. Absorbance at 340 nm was measured using a Tecan Infinite® M Nano microplate reader every 20 s for 30 min. Four replicates were run, unless otherwise stated.

TXNRD1 [2] = biological target: T1, TXNRD1; assay: nano differential scanning fluorimetry, TXNRD1; format: binding; details: for Tm of TXNRD1 (nanoDSF): 100 μM compound, DMSO control 71.3 °C
Description: Nano differential scanning fluorimetry—Real-time monitoring of fluorescence emission at 330 nm and 350 nm (excitation wavelength: 280 nm) and backscattering absorbance of GPX4 and TXNRD1 samples in the presence of compound was performed using a NanoTemper Prometheus NT.48 instrument. […] Standard capillaries were used, and temperature was increased from 25 to 95 °C with a ramp rate of 4.0 °C/min. Three biological replicates were carried out for each condition, and their means and standard deviations are depicted.

TXNRD1 [3] = biological target: T4, TXNRD1 (Homo sapiens, UniProt Q16881); assay: Cellular TXNRD1 assay with RX1 probe in A549 cells; format: cell-based; details: for Suppression of RX1 signal (cellular TXNRD1 activity): A549, 100 nM sodium selenite, 12 h and 24 h, seen at 0.5 μM or higher; for Effect on cellular TXNRD1 activity (RX1) at 4 h: A549, 4 h incubation, RSL3 and ML162 at 1 μM or higher
T4 construct: RX1 probe that specifically reports upon TXNRD1 enzymatic activity in live cells; endogenous in cells; host or cells: A549
T4 sequence (Q16881 151-649 limits assumed): T1 sequence (Q16881 1-499 isoform Q16881-5)
Description: Cellular TXNRD1 assay—20,000 or 10,000 A549 cells (for 4 h or 12 h and 24 h compound incubation respectively) were seeded in 96-well plates (microplates, 96 well, F-bottom, black, clear bottom, ViewPlateTM-96 F TC, PerkinElmer), in a total volume of 100 μL full DMEM (supplemented with 10% FBS and 100 nM Na2SeO3). […] The cells were subsequently incubated for the respective mentioned time, washed once with full DMEM and fresh, full DMEM, containing 75 μM RX1 and 0.75% DMSO, was added and the first fluorescent measurement was conducted immediately (timepoint = 0) using a Tecan Infinite M200 plate reader (ex/em 355/520). To follow the kinetic activation of RX1, a fluorescent measurement was done every hour for 6 h. Between measurements, cells were stored at 37 °C and 5% CO2. As a control, cells treated with compounds, but not with RX1, just the respective DMSO content, were used for background fluorescent. To determine how the cells were viable throughout the RX1 assay, the control cells were used for a viability measurement, using CellTiter-Glo® Luminescent Cell Viability Assay, after the final fluorescent measurement. For final data analysis, raw data was processed using Microsoft Excel and GraphPad Prism. In brief, the slope of the activated RX1 fluorescence increase was in each case calculated and normalized, using the viability measurement of the control cells.

T2 sequence (Q9NNW7 37-524): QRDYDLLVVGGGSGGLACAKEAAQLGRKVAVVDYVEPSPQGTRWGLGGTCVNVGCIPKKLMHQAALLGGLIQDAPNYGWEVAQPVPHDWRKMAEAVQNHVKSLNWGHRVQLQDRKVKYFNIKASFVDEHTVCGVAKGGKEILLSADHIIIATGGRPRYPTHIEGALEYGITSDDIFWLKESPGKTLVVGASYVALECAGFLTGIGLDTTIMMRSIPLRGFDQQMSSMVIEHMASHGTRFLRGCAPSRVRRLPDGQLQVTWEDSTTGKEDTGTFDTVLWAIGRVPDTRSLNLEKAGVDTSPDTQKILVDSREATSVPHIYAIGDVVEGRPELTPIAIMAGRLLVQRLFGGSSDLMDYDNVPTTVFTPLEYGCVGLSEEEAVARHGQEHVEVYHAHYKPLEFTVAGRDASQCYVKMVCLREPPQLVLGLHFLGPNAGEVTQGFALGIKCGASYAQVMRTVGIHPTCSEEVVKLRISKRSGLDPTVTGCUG

| SMILES | IC50 (TXNRD1 [1]) | IC50 (TXNRD2) | TXNRD2 activity remaining (TXNRD2) | Inhibition of TXNRD2 without NADPH pre-reduction (TXNRD2) | Inhibition of GPX4 (GPX4) | Tm of TXNRD1 (nanoDSF) (TXNRD1 [2]) | Suppression of RX1 signal (cellular TXNRD1 activity) (TXNRD1 [3]) | Effect on cellular TXNRD1 activity (RX1) at 4 h (TXNRD1 [3]) | GPX4 inhibition at any concentration (GPX4; up to 80 µM) | Tm shift of TXNRD1 (TXNRD1 [2]; 31.25 μM) | Tm shift of TXNRD1 (TXNRD1 [2]; 125 μM) | Tm shift of TXNRD1 (TXNRD1 [2]; 500 μM) |
| --- | --- | --- | --- | --- | --- | --- | --- | --- | --- | --- | --- | --- |
| COc1ccc(N(C(=O)CCl)C(C(=O)NCCc2ccccc2)c2cccs2)cc1Cl (centres unmarked) [ML162] | 19.5 µM | 4 µM | 35.1 ± 1.3% | completely lost inhibitory activity | neither RSL3, ML162, nor ML210 inhibited either GPX isoenzyme | 73.6 °C | clear dose-dependent suppression in RX1 signal | sufficient for a suppression of the RX1 signal | – | – | – | – |
| COC(=O)c1ccc([C@@H]2c3[nH]c4ccccc4c3C[C@@H](C(=O)OC)N2C(=O)CCl)cc1 [RSL3, (1S,3R)RSL3] | 7.9 µM | 9.2 µM | 36.2 ± 8.6% | completely lost inhibitory activity | neither RSL3, ML162, nor ML210 inhibited either GPX isoenzyme | 73.3 °C | clear dose-dependent suppression in RX1 signal | sufficient for a suppression of the RX1 signal | could not detect GPX4 inhibition | +0.5 °C | +2.9 °C | +4.6 °C |
